Assay results taken from article PMC9848300, “Discovery of novel enasidenib analogues targeting inhibition of mutant isocitrate dehydrogenase 2 as antileukaemic agents” (Journal of Enzyme Inhibition and Medicinal Chemistry, 2023).

Key:
[1] = test system: HL-60(TB); assay: NCI 60 antitumor screening (single dose / five doses); assay type: cell-based; settings: Homo sapiens; HL-60(TB) (leukaemia), single dose 10 μM; read-out: Growth inhibition percentage (GI %)
[2] = test system: K-562; assay: as above; assay type: cell-based; settings: Homo sapiens, K562; K-562 (leukaemia), single dose 10 μM; read-out: Growth inhibition percentage (GI %)
[3] = test system: MOLT-4; assay: as above; assay type: cell-based; settings: Homo sapiens; MOLT-4 (leukaemia), single dose 10 μM; read-out: Growth inhibition percentage (GI %)
[4] = test system: RPMI-8226; assay: as above; assay type: cell-based; settings: Homo sapiens; RPMI-8226 (leukaemia), single dose 10 μM; read-out: Growth inhibition percentage (GI %)
[5] = test system: EKVX; assay: as above; assay type: cell-based; settings: Homo sapiens; EKVX (non-small cell lung cancer), single dose 10 μM; read-out: Growth inhibition percentage (GI %)
[6] = test system: HCC-2998; assay: NCI 60 antitumor screening (single dose); assay type: cell-based; settings: Homo sapiens; HCC-2998 (colon cancer), single dose 10 μM; read-out: Growth inhibition percentage (GI %)
Outline: (§1)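 Under the NCI Drug Evaluation Branch protocol, each compound is screened at one 10 μM concentration on the 60-line human tumour panel. Growth of treated cells is expressed as G%, and inhibition is reported as 100 − G%.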

[7] = test system: HOP-62; assay: NCI 60 antitumor screening (single dose); assay type: cell-based; settings: Homo sapiens; HOP-62 (non-small cell lung cancer), single dose 10 μM; read-out: Growth inhibition percentage (GI %)
Outline: as §1

[8] = test system: NCI-H460; assay: NCI 60 antitumor screening (single dose); assay type: cell-based; settings: Homo sapiens; NCI-H460 (non-small cell lung cancer), single dose 10 μM; read-out: Growth inhibition percentage (GI %)
Outline: as §1

[9] = test system: OVCAR-8; assay: NCI 60 antitumor screening (single dose); assay type: cell-based; settings: Homo sapiens; OVCAR-8 (ovarian cancer), single dose 10 μM; read-out: Growth inhibition percentage (GI %)
Outline: (§2)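 Values are GI% (100 − G%) from the NCI 60-line single-dose screen, compound at 10 μM.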

[10] = test system: PC-3; assay: NCI 60 antitumor screening (single dose); assay type: cell-based; settings: Homo sapiens; PC-3 (prostate cancer), single dose 10 μM; read-out: Growth inhibition percentage (GI %)
Outline: as §2

[11] = test system: TK-10; assay: NCI 60 antitumor screening (single dose); assay type: cell-based; settings: Homo sapiens; TK-10 (renal cancer), single dose 10 μM; read-out: Growth inhibition percentage (GI %)
Outline: as §2

[12] = test system: COLO 205; assay: NCI 60 antitumor screening (single dose / five doses); assay type: cell-based; settings: Homo sapiens; COLO 205 (colon cancer), single dose 10 μM; read-out: Growth inhibition percentage (GI %)
[13] = test system: HCT-15; assay: as above; assay type: cell-based; settings: Homo sapiens; HCT-15 (colon cancer), single dose 10 μM; read-out: Growth inhibition percentage (GI %)
[14] = test system: HT29; assay: as above; assay type: cell-based, human; settings: Homo sapiens, HT-29; HT29 (colon cancer), single dose 10 μM; read-out: Growth inhibition percentage (GI %)
[15] = test system: SW-620; assay: as above; assay type: cell-based, human; settings: Homo sapiens; SW-620 (colon cancer), single dose 10 μM; read-out: Growth inhibition percentage (GI %)
[16] = test system: SF-295; assay: as above; assay type: cell-based; settings: Homo sapiens; SF-295 (CNS cancer), single dose 10 μM; read-out: Growth inhibition percentage (GI %)
[17] = test system: LOX IMVI; assay: as above; assay type: cell-based; settings: Homo sapiens; LOX IMVI (melanoma), single dose 10 μM; read-out: Growth inhibition percentage (GI %)
[18] = test system: SK-MEL-5; assay: as above; assay type: cell-based; settings: Homo sapiens; SK-MEL-5 (melanoma), single dose 10 μM; read-out: Growth inhibition percentage (GI %)
[19] = test system: UACC-257; assay: as above; assay type: cell-based; settings: Homo sapiens; UACC-257 (melanoma), single dose 10 μM; read-out: Growth inhibition percentage (GI %)
[20] = test system: UACC-62; assay: as above; assay type: cell-based; settings: Homo sapiens; UACC-62 (melanoma), single dose 10 μM; read-out: Growth inhibition percentage (GI %)
[21] = test system: IGROV1; assay: as above; assay type: cell-based; settings: Homo sapiens, IGROV-1; IGROV1 (ovarian cancer), single dose 10 μM; read-out: Growth inhibition percentage (GI %)
[22] = test system: 786-0; assay: as above; assay type: cell-based; settings: Homo sapiens, 786-0, 786-0 (renal cancer), single dose 10 μM; read-out: Growth inhibition percentage (GI %)
[23] = test system: ACHN; assay: as above; assay type: cell-based; settings: Homo sapiens; ACHN (renal cancer), single dose 10 μM; read-out: Growth inhibition percentage (GI %)
[24] = test system: RXF 393; assay: as above; assay type: cell-based; settings: Homo sapiens; RXF 393 (renal cancer), single dose 10 μM; read-out: Growth inhibition percentage (GI %)
[25] = test system: UO-31; assay: as above; assay type: cell-based; settings: Homo sapiens; UO-31 (renal cancer), single dose 10 μM; read-out: Growth inhibition percentage (GI %)
[26] = test system: MDA-MB-231/ATCC; assay: as above; assay type: cell-based; settings: Homo sapiens; MDA-MB-231/ATCC (breast cancer), single dose 10 μM; read-out: Growth inhibition percentage (GI %)
[27] = test system: BT-549; assay: as above; assay type: cell-based; settings: Homo sapiens; BT-549 (breast cancer), single dose 10 μM; read-out: Growth inhibition percentage (GI %)
[28] = test system: MDA-MB-468; assay: as above; assay type: cell-based; settings: Homo sapiens; MDA-MB-468 (breast cancer), single dose 10 μM; read-out: Growth inhibition percentage (GI %)

| SMILES | inhibition at 10 µM [1] [%] | inhibition at 10 µM [2] [%] | inhibition at 10 µM [3] [%] | inhibition at 10 µM [4] [%] | inhibition at 10 µM [5] [%] | inhibition at 10 µM [6] [%] | inhibition at 10 µM [7] [%] | inhibition at 10 µM [8] [%] | inhibition at 10 µM [9] [%] | inhibition at 10 µM [10] [%] | inhibition at 10 µM [11] [%] | inhibition at 10 µM [12] [%] | inhibition at 10 µM [13] [%] | inhibition at 10 µM [14] [%] | inhibition at 10 µM [15] [%] | inhibition at 10 µM [16] [%] | inhibition at 10 µM [17] [%] | inhibition at 10 µM [18] [%] | inhibition at 10 µM [19] [%] | inhibition at 10 µM [20] [%] | further results |
| --- | --- | --- | --- | --- | --- | --- | --- | --- | --- | --- | --- | --- | --- | --- | --- | --- | --- | --- | --- | --- | --- |
| Oc1ccc(/C=N/Nc2nc(N/N=C/c3ccc(O)c(O)c3)nc(N3CCCCC3)n2)cc1O [compound 7j, 4-[(1e)-(2-{4-[(E)-2-[(3,4-Dihydroxyphenyl)methylidene]hydrazin-1-yl]-6-(piperidin-1-yl)-1,3,5-triazin-2-yl}hydrazin-1-ylidene)methyl]benzene-1,2-diol] | -1.96 | 6.41 | 6.3 | -7.6 | 1.58 | -5 | -10.5 | 0.77 | 1.94 | 9.42 | -3.52 | -6.39 | 16.1 | -13.4 | 6.35 | 0.36 | 6.65 | 4.85 | -8.89 | 3.56 | inhibition at 10 µM [21]: 5.35%; inhibition at 10 µM [22]: -1.22%; inhibition at 10 µM [23]: 6.6%; inhibition at 10 µM [24]: -17.8%; inhibition at 10 µM [25]: 15.3%; inhibition at 10 µM [26]: 12.8%; inhibition at 10 µM [27]: 1.47%; inhibition at 10 µM [28]: 10.2% |
| CN(C)c1ccc(/C=N/Nc2nc(N/N=C/c3ccc(N(C)C)cc3)nc(N3CCOCC3)n2)cc1 [compound 6g, 4-[(1e)-(2-{4-[(E)-2-{[4-(dimethylamino)phenyl]methylidene}hydrazin-1-yl]-6-(morpholin-4-yl)-1,3,5-triazin-2-yl}hydrazin-1-ylidene)methyl]-N,N-dimethylaniline] | 3.26 | 93.7 | 3.27 | 65 | 4.62 | -2.9 | -5.52 | 83.3 | 1.04 | 12.3 | -10.2 | -8.37 | 77.6 | -1.91 | 16.2 | 86.2 | 12.3 | -0.23 | -2.69 | 2.25 | inhibition at 10 µM [21]: 5.41%; inhibition at 10 µM [22]: 15.4%; inhibition at 10 µM [23]: -4.23%; inhibition at 10 µM [24]: 6.9%; inhibition at 10 µM [25]: 9.35%; inhibition at 10 µM [26]: 0.47%; inhibition at 10 µM [27]: -5.53%; inhibition at 10 µM [28]: 2.17% |
